{"source": "patent US20060141473A1", "about": "“Erk7 and erk8, novel diagnostic markers for cancer” (priority 2003, published 2006)", "key": {"[1]": {"biological_target": "T1, bacterially expressed ERK7 (Rattus norvegicus, UniProt Q9Z2A6)", "T1 construct": "HIS-tag; made in house; host or cells: bacteria", "T1 sequence (Q9Z2A6 1-547)": "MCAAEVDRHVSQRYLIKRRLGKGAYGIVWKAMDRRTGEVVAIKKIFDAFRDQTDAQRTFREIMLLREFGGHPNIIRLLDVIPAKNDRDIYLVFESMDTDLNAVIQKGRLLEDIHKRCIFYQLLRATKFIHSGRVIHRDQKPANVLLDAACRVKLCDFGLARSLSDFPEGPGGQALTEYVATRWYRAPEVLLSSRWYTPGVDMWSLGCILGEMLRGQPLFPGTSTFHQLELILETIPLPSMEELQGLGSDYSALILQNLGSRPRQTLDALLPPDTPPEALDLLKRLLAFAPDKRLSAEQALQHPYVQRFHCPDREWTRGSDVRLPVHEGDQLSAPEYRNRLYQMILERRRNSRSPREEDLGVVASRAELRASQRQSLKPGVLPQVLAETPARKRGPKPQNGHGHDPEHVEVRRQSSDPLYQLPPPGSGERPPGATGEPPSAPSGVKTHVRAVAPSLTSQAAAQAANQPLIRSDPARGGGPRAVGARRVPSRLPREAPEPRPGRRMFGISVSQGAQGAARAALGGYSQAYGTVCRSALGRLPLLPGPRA", "assay": "ERK7 kinase assay, phosphorylation of GST-MBPtide, HRP-ELISA", "assay_type": "biochemical", "conditions": "purified ERK7 5 nM", "procedure": "FIG. 1: is a graph representing the determination of the KM of ATP for bacterially expressed ERK7. Purified ERK7 (5 nM) was incubated in the presence of increasing ATP concentrations. The concentration of ATP supporting maximal velocity of the kinase reaction is 1 mM. The concentration of ATP supporting half-maximal velocity (KM) is ˜100 μM. Background is the measured signal from reactions carried out in the presence of 200 mM EDTA, which eliminates kinase activity. The background has not been subtracted from the ERK7 signal. Phosphorylation of the immobilized GST-MBPtide was detected using the HRP-ELISA as described in Example 1.\nKinase assays were developed to measure the activity of rat ERK7 and human ERK8. Purified, recombinant ERK7 and ERK8 were obtained by introducing a HIS-tag in frame with the coding sequence of the kinases, expressing the proteins in bacteria and purifying the proteins over a NiNTA resin (Qiagen, Valencia, Calif.). […]\nThe kinase assays were performed in a 96 well format according to the following procedure. […] All assays measured the initial velocity of reaction. […] HRP activity was measured using Western Lightning Chemiluminescence Reagent (NEL102, PerkinElmer Life Sciences) according to manufacturer's protocol. Maximum and minimum activity is the relative luminescence detected in the presence of vehicle and 200 mM EDTA, respectively. […]"}, "MAPK(ERK1/2)": {"tested_on": "MAPK(ERK1/2)", "conditions": "cells expressing MAPK(ERK1/2); cited from earlier work"}, "ERK7/8": {"tested_on": "ERK7/8", "conditions": "cited from earlier work"}, "ERα": {"tested_on": "ERα", "assay": "ERα protein levels by immunoblot in transfected BHK cells treated with proteasome inhibitor", "assay_type": "cell-based, hamster", "conditions": "presence and absence of estradiol", "procedure": "BHK cells were transfected in 10 mm dishes with calcium phosphate and 1 μg of wild type or mutant ERα or FLAG-IκBα or HA-SF1 or HA-AR construct, 5 μg of a construct encoding a wild type or mutant kinase or vector control. At 8 h post transfection, the cells were washed with phosphate-buffered saline (PBS) and placed in Dulbecco's modified Eagle's medium (DMEM) with 5% fetal calf serum (FCS)."}, "[2]": {"tested_on": "ERα-regulated transcription", "assay": "ERE-luciferase transcriptional analysis in MCF-7 stable lines", "assay_type": "cell-based, human"}}, "note": "Residues, ends and D or L forms follow the SMILES beside them. *: point of attachment. Cbz = O=C(OCc1ccccc1)*"}
{"smiles": "Nc1ncnc2c1ncn2[C@@H]1O[C@H](COP(=O)(O)OP(=O)(O)OP(=O)(O)O)[C@@H](O)[C@H]1O", "note": "[ATP]", "values": [{"measurement": "concentration supporting maximal velocity of the kinase reaction", "setting": "[1]", "value": 1, "unit": "mM"}, {"measurement": "Km", "setting": "[1]; increasing ATP, read-out: KM (concentration supporting half-maximal velocity)", "value": "~100", "unit": "µM"}]}
{"smiles": "C=C1[C@@H](O)[C@@H]2O[C@]3(CC[C@H](/C=C/[C@@H](C)[C@@H]4CC(C)=C[C@@]5(O[C@H](C[C@@](C)(O)C(=O)O)CC[C@H]5O)O4)O3)CC[C@H]2O[C@@H]1[C@@H](O)C[C@H](C)[C@H]1O[C@@]2(CCCCO2)CC[C@H]1C", "note": "[okadaic acid]", "values": [{"measurement": "effect on amount of TEY phosphorylated MAPK(ERK1/2)", "setting": "MAPK(ERK1/2)", "value": "increases"}, {"measurement": "effect on ERK7/8 TEY phosphorylation", "setting": "ERK7/8", "value": "no effect"}]}
{"smiles": "CC(C)C[C@@H](C=O)NC(=O)[C@H](CC(C)C)NC(=O)[C@H](CC(C)C)NC(=O)OCc1ccccc1", "note": "[MG132] (Cbz-Leu-Leu-Leu-aldehyde)", "values": [{"measurement": "effect on ERα protein levels", "setting": "ERα", "value": "increased ERα protein levels"}, {"measurement": "effect on transcriptional response", "setting": "[2]; MCF-7 cells stably expressing K43A-ERK7, ERE-luciferase reporter", "value": "not affected"}, {"measurement": "increase of transcriptional response to estradiol", "setting": "[2]; MCF-7 control (vector) stable cells, ERE-luciferase reporter", "value": "~3", "unit": "fold"}]}
